Assay results as given in ChEMBL document CHEMBL5537161, “Structure-Guided Design, Synthesis, and Antivirulence Assessment of Covalent Staphylococcus aureus Sortase A Inhibitors” (J Med Chem, 2024).
In brackets after ≈: the same amount, converted by molar mass.

How the values were obtained:
Sortase A [1] = target: T1, Sortase A (Staphylococcus aureus, UniProt Q9S446, N24DEL); assay: Inhibition of Staphylococcus aureus sortase A N24 deletion mutant using Abz-LPATG-Dnp as substrate preincubated for 20 mins followed by substrate addition by FRET assay
Staphylococcus aureus = assay: Bactericidal activity against Staphylococcus aureus Newman assessed as reduction in bacterial growth incubated for 16 to 18 hrs; assay type: functional; details: time 16-18 hrs
Sortase A [2] = target: T1, Sortase A; assay: Inhibition of Staphylococcus aureus Sortase A N24 deletion mutant transpeptidation using IsdA64-323 as substrate preincubated for 20 mins followed by substrate addition and measured after 1.5 hrs by SDS-PAGE analysis

| Structure (SMILES) | IC50 (Sortase A [1]) [nM] | MIC (Staphylococcus aureus) [µg/mL] | IC50 (Sortase A [2]) [µM] |
| --- | --- | --- | --- |
| O=C1NC(=O)C(=C/C=C/c2ccc(OC(=O)CNC(=O)OCc3ccccc3)cc2)C(=O)N1 | 1800 | > 128 | – |
| O=C1NC(=O)C(=C/C=C/c2ccc(Cl)cc2)C(=O)N1 | 1000 | 128 (≈ 463 µM) | – |
| COc1ccc(/C=C/C=C2C(=O)NC(=O)NC2=O)cn1 | 2300 | > 128 | – |
| O=C1NC(=O)C(=C/C=C/c2ccc(OCC(=O)c3ccc[nH]3)cc2)C(=O)N1 | 500 | > 128 | 15.3 |
| Cc1ccc(/C=C/C=C2C(=O)NC(=O)NC2=O)cc1 | 1000 | 128 (≈ 499 µM) | – |
| COc1cccc(/C=C/C=C2C(=O)NC(=O)NC2=O)c1 | 2100 | 128 (≈ 470 µM) | – |
| COc1ncc(/C=C/C=C2C(=O)NC(=O)NC2=O)cn1 | 7700 | > 128 | – |
| COC(=O)c1ccc(/C=C/C=C2C(=O)NC(=O)NC2=O)cc1 | 2200 | > 128 | – |
| O=C1NC(=O)C(=C/C=C/c2ccccc2Cl)C(=O)N1 | 2100 | 128 (≈ 463 µM) | – |
| CC(C)CCC(=O)Oc1ccc(/C=C/C=C2C(=O)NC(=O)NC2=O)cc1 | 1500 | 128 (≈ 359 µM) | – |
| O=C1NC(=O)C(=C/C=C/c2ccc(OCc3cccnc3)cc2)C(=O)N1 | > 50000 | > 128 | – |
| O=C1NC(=O)C(=C/C=C/c2ccc(OCc3ccncc3)cc2)C(=O)N1 | > 50000 | > 128 | – |
| COc1ccc(COc2ccc(/C=C/C=C3C(=O)NC(=O)NC3=O)cc2)cc1 | 1600 | > 128 | – |
| O=C1NC(=O)C(=CNCc2ccc(Br)cc2)C(=O)N1 | > 50000 | > 128 | – |
| O=C1NC(=O)C(=C/C=C/c2ccc(Br)cc2)C(=O)N1 | 700 | 64 (≈ 199 µM) | 9 |
| CC(C)C[C@H](NC(=O)OCc1ccccc1)C(=O)Oc1ccc(/C=C/C=C2C(=O)NC(=O)NC2=O)cc1 | 5600 | 64 (≈ 127 µM) | – |
| O=C1NC(=O)C(=C/C=C/c2ccc(F)cc2)C(=O)N1 | 1300 | > 128 | 7.4 |
| CC(C)CC=C1C(=O)NC(=O)NC1=O | > 50000 | > 128 | – |
| COc1ccc(/C(C#N)=C/C=C2C(=O)NC(=O)NC2=O)cc1 | 4700 | 128 (≈ 431 µM) | – |
| CC(C)c1ccc(/C=C/C=C2C(=O)NC(=O)NC2=O)cc1 | 1800 | 32 (≈ 113 µM) | – |
| O=C1NC(=O)C(=C/C=C/c2ccc(OC(=O)[C@H](CO)NC(=O)OCc3ccccc3)cc2)C(=O)N1 | 2500 | > 128 | – |
| CN(C)c1ccc(/C=C/C=C2C(=O)NC(=O)NC2=O)cc1 | > 50000 | > 128 | – |
| O=C1NC(=O)C(=Cc2ccc(-c3ccc(Br)cc3)o2)C(=O)N1 | > 50000 | 64 (≈ 177 µM) | – |
| O=C1NC(=O)C(=C/C=C/c2ccc(OCc3ccc(OCc4ccccc4)cc3)cc2)C(=O)N1 | > 50000 | > 128 | – |
| Cc1ccc(COc2ccc(/C=C/C=C3C(=O)NC(=O)NC3=O)cc2)cc1 | 1100 | > 128 | – |
| O=C(CNC(=O)OCc1ccccc1)NCC(=O)Oc1ccc(/C=C/C=C2C(=O)NC(=O)NC2=O)cc1 | 1700 | 32 (≈ 63.2 µM) | – |
| CC(C)(C)c1ccc(COc2ccc(/C=C/C=C3C(=O)NC(=O)NC3=O)cc2)cc1 | > 50000 | 128 (≈ 316 µM) | – |
